Laboratory results reported in ChEMBL document CHEMBL3991601, “The target landscape of clinical kinase drugs” (Science, 2017).
The source made the active and inactive calls.

Tests used:
[1] = biological target: DnaJ homolog subfamily A member 1 (Homo sapiens, UniProt P31689)
Ephrin type-B receptor 6 = biological target: T1, Ephrin type-B receptor 6 (Homo sapiens, UniProt O15197)
T1 sequence (O15197 whole entry): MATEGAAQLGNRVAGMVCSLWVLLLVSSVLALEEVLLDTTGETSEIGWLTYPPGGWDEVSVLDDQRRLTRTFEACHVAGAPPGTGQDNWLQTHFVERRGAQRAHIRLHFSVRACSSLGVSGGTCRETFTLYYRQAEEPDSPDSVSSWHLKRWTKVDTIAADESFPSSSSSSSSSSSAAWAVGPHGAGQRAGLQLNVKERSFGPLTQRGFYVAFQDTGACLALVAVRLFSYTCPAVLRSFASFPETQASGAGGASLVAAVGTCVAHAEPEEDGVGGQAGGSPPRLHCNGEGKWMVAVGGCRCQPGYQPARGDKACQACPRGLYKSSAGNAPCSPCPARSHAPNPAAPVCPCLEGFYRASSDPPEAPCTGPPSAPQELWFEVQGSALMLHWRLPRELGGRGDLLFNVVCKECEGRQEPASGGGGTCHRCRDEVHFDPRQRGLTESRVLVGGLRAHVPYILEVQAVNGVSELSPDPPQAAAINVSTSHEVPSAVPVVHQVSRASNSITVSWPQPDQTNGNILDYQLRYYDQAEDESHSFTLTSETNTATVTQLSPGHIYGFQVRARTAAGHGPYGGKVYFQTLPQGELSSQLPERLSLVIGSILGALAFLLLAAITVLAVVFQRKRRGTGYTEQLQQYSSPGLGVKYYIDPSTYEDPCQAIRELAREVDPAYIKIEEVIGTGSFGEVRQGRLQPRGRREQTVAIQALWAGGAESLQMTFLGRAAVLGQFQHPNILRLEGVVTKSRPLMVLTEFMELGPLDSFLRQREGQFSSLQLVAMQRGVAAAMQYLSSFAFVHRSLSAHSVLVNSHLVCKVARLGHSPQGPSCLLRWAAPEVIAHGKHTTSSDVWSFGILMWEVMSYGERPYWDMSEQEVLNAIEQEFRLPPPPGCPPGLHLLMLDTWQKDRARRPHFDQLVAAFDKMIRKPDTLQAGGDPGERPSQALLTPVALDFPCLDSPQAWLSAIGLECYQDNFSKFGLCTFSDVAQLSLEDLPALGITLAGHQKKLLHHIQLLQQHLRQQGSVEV

[2] = biological target: T2, Interleukin-1 receptor-associated kinase 4 (Homo sapiens, UniProt Q9NWZ3)
T2 sequence (Q9NWZ3 whole entry): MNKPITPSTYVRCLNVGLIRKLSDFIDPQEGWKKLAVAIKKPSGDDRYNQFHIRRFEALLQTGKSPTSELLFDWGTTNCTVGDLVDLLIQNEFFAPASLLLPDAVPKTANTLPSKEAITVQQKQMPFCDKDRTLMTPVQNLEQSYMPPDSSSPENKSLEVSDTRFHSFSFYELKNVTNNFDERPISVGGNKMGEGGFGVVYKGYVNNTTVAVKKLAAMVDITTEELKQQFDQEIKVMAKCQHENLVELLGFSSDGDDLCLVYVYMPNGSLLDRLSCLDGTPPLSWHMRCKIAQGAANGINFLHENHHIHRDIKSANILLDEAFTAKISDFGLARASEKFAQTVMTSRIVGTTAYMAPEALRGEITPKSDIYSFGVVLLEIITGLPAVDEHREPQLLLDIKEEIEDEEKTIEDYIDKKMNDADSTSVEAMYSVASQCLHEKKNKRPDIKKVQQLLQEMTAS

Midasin = Midasin (Homo sapiens, UniProt Q9NU22)
[3] = biological target: T3, Dynamin-like GTPase OPA1, mitochondrial (Homo sapiens, UniProt O60313)
T3 sequence (O60313 whole entry): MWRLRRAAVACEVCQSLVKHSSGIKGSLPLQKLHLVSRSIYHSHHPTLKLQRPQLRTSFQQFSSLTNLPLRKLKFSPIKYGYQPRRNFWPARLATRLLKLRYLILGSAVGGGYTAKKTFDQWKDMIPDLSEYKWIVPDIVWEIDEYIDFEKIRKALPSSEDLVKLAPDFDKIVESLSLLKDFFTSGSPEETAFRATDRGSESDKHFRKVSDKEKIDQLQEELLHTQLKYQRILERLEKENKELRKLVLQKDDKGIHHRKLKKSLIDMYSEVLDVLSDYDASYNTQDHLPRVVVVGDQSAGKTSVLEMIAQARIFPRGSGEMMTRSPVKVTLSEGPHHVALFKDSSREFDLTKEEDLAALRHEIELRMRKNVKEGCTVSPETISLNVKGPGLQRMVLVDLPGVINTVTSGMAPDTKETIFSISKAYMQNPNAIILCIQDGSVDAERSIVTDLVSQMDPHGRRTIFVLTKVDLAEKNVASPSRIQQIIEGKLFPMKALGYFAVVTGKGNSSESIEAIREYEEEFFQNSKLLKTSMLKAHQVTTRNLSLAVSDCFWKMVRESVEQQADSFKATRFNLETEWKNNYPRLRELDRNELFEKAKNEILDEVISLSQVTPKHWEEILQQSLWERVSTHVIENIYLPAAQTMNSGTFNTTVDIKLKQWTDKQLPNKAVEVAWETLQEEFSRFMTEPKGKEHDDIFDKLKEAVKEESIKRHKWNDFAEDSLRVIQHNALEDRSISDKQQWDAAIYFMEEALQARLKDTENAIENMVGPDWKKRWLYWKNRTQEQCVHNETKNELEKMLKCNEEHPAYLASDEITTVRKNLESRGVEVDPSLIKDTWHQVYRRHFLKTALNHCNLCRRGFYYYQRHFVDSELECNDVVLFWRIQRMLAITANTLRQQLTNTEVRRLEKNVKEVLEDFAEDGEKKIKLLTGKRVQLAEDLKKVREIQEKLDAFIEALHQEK

[4] = biological target: cAMP-dependent protein kinase catalytic subunit alpha (Homo sapiens, UniProt P17612)
[5] = biological target: T4, STE20-related kinase adapter protein alpha (Homo sapiens, UniProt Q7RTN6)
T4 sequence (Q7RTN6 whole entry): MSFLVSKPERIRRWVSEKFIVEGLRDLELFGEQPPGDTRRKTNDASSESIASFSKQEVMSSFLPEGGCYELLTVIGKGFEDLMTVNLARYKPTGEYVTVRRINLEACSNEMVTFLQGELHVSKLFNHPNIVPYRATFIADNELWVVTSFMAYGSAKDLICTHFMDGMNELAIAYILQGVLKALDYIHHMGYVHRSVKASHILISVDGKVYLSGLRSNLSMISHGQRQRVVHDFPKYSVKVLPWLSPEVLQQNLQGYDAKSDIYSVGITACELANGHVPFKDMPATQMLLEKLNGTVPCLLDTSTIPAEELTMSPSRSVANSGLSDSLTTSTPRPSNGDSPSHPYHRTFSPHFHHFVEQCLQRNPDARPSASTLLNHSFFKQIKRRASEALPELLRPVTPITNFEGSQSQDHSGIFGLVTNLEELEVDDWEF
Also: in the data inactive means no Kd found up to 30 µM.

DnaJ homolog subfamily A member 1, sequence (P31689 whole entry): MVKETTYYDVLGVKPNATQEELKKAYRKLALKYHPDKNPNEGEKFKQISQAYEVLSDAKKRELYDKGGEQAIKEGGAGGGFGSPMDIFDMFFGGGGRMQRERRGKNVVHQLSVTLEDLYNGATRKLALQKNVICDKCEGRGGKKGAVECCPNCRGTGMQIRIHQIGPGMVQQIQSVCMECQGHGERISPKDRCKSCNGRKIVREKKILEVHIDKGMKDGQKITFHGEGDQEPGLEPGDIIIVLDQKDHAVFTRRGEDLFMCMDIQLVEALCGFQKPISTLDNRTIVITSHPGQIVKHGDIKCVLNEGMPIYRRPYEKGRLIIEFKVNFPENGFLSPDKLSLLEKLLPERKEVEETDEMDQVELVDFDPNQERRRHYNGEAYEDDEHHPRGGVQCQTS

Row | Structure (SMILES) | Kd [1] | Kd (Ephrin type-B receptor 6) | Kd [2] | Kd (Midasin) | Kd [3] | Kd [4] | Kd [5]
1 | O=c1[nH]c([C@@H]2CCCN2)nc2c1oc1ccc(Cl)cc12 | > 30 µM (inactive) | > 30 µM (inactive) | > 30 µM (inactive) | > 30 µM (inactive) | > 30 µM (inactive) | > 30 µM (inactive) | > 30 µM (inactive)
2 | Cn1cc(-c2[nH]c3cc(NC(=O)[C@H](N)C4CCCCC4)cc4c3c2C=NNC4=O)cn1 | > 30 µM (inactive) | 1.53 µM | 2.61 µM (active) | > 30 µM (inactive) | > 30 µM (inactive) | > 30 µM (inactive) | > 30 µM (inactive)
3 | CN(C)C/C=C/C(=O)Nc1cc2c(Nc3ccc(F)c(Cl)c3)ncnc2cc1O[C@H]1CCOC1 [AFATINIB] | > 30 µM (inactive) | – | – | > 30 µM (inactive) | > 30 µM (inactive) | – | > 30 µM (inactive)
4 | CCN(CCCOc1ccc2c(Nc3cc(CC(=O)Nc4cccc(F)c4)n[nH]3)ncnc2c1)CCOP(=O)(O)O [BARASERTIB] | > 30 µM (inactive) | > 30 µM (inactive) | > 30 µM (inactive) | > 30 µM (inactive) | > 30 µM (inactive) | – | > 30 µM (inactive)
5 | C[C@@]1(C(=O)Nc2ccc(F)nc2)CCCN1c1nc(Nc2cc(C3CC3)n[nH]2)c2cccn2n1 [BMS-754807] | > 30 µM (inactive) | – | – | > 30 µM (inactive) | > 30 µM (inactive) | – | > 30 µM (inactive)
6 | CCOc1ccn(-c2ccc(F)cc2)c(=O)c1C(=O)Nc1ccc(Oc2ccnc(N)c2Cl)c(F)c1 [BMS-777607] | > 30 µM (inactive) | > 30 µM (inactive) | > 30 µM (inactive) | > 30 µM (inactive) | > 30 µM (inactive) | > 30 µM (inactive) | –
7 | COc1cc2c(Oc3ccc4[nH]c(C)cc4c3F)ncnc2cc1OCCCN1CCCC1 [CEDIRANIB] | > 30 µM (inactive) | – | – | > 30 µM (inactive) | > 30 µM (inactive) | – | > 30 µM (inactive)
8 | CC1(COc2ccc3c(c2)ncn3-c2ccc3cccc(N4CCC(N)CC4)c3n2)COC1 [CRENOLANIB] | > 30 µM (inactive) | > 30 µM (inactive) | – | > 30 µM (inactive) | > 30 µM (inactive) | > 30 µM (inactive) | > 30 µM (inactive)
9 | Cn1c(=O)n(-c2ccc(C(C)(C)C#N)cc2)c2c3cc(-c4cnc5ccccc5c4)ccc3ncc21 [DACTOLISIB] | > 30 µM (inactive) | > 30 µM (inactive) | > 30 µM (inactive) | > 30 µM (inactive) | > 30 µM (inactive) | – | > 30 µM (inactive)
10 | O=S(=O)(c1cccc2cnccc12)N1CCCNCC1 [FASUDIL] | > 30 µM (inactive) | > 30 µM (inactive) | – | > 30 µM (inactive) | > 30 µM (inactive) | – | > 30 µM (inactive)
11 | CCc1nc(C(N)=O)c(Nc2ccc(N3CCC(N4CCN(C)CC4)CC3)c(OC)c2)nc1NC1CCOCC1 [GILTERITINIB] | > 30 µM (inactive) | 0.241 µM | – | > 30 µM (inactive) | > 30 µM (inactive) | > 30 µM (inactive) | > 30 µM (inactive)
12 | O=S(=O)(c1cccc2c(O)nccc12)N1CCCNCC1 [HYDROXYFASUDIL] | > 30 µM (inactive) | > 30 µM (inactive) | > 30 µM (inactive) | > 30 µM (inactive) | > 30 µM (inactive) | – | > 30 µM (inactive)
13 | C[C@]1(O)C[C@@H](c2nc(-c3ccc4ccc(-c5ccccc5)nc4c3)c3c(N)nccn32)C1 [LINSITINIB] | > 30 µM (inactive) | > 30 µM (inactive) | – | > 30 µM (inactive) | > 30 µM (inactive) | – | > 30 µM (inactive)
14 | O=C(NOC[C@H](O)CO)c1ccc(F)c(F)c1Nc1ccc(I)cc1F [MIRDAMETINIB] | > 30 µM (inactive) | > 30 µM (inactive) | > 30 µM (inactive) | – | > 30 µM (inactive) | > 30 µM (inactive) | > 30 µM (inactive)
15 | N#CCNC(=O)c1ccc(-c2ccnc(Nc3ccc(N4CCOCC4)cc3)n2)cc1 [MOMELOTINIB] | > 30 µM (inactive) | > 30 µM (inactive) | > 30 µM (inactive) | > 30 µM (inactive) | – | > 30 µM (inactive) | –
16 | CC1(C)CNc2cc(NC(=O)c3cccnc3NCc3ccncc3)ccc21 [MOTESANIB] | > 30 µM (inactive) | – | – | > 30 µM (inactive) | > 30 µM (inactive) | – | > 30 µM (inactive)
17 | CN(c1ncccc1CNc1nc(Nc2ccc3c(c2)CC(=O)N3)ncc1C(F)(F)F)S(C)(=O)=O [PF-00562271] | > 30 µM (inactive) | > 30 µM (inactive) | – | > 30 µM (inactive) | > 30 µM (inactive) | > 30 µM (inactive) | > 30 µM (inactive)
18 | Cn1cnc2c(F)c(Nc3ccc(Br)cc3Cl)c(C(=O)NOCCO)cc21 [SELUMETINIB] | > 30 µM (inactive) | – | – | > 30 µM (inactive) | > 30 µM (inactive) | – | > 30 µM (inactive)
19 | Cn1c(=O)c(F)c(Nc2ccc(I)cc2F)c2c(=O)n(C[C@@H](O)CO)cnc21 [TAK-733] | > 30 µM (inactive) | – | > 30 µM (inactive) | > 30 µM (inactive) | > 30 µM (inactive) | > 30 µM (inactive) | > 30 µM (inactive)
20 | COc1cc2c(N3CCN(C(=O)Nc4ccc(OC(C)C)cc4)CC3)ncnc2cc1OCCCN1CCCCC1 [TANDUTINIB] | > 30 µM (inactive) | – | – | > 30 µM (inactive) | > 30 µM (inactive) | – | > 30 µM (inactive)
21 | CNC(=O)c1cc(COc2nnc(Nc3ccc(Cl)cc3)c3ccoc23)ccn1 [TELATINIB] | > 30 µM (inactive) | > 30 µM (inactive) | > 30 µM (inactive) | – | > 30 µM (inactive) | > 30 µM (inactive) | > 30 µM (inactive)
